From patent US20260375094A1, “Disinfectant Compositions” (ARXADA, LLC, priority 2022, published 2026)

Legend:
Type in all cases: cell-based
Staphylococcus aureus = experiment: glass slide carrier spray disinfection test, Staphylococcus aureus; settings: 75 ppm antimicrobial agent, no polyethertriamine; 10 minutes contact time
Method: (§1) In this example, Pseudomonas aeruginosa or Staphylococcus aureus were dried on glass slides and then sprayed with disinfectant compositions prepared according to the present disclosure. The organism load on the slide was controlled between 5 and 6 log 10 (equals to 10^5 to 10^6 organisms). The spray bottle containing the disinfectant was placed 4 inches away from the carrier and five sprays were applied. After 10 minutes contact time, the carriers are aseptically transferred to 20 ml of letheen broth (neutralizer/growth media). These letheen broth tubes with the carriers are then incubated at 37±1 °C for 48 hours. After 48 hours, a cloudy letheen tube indicates growth or failure and a clear tube indicates no growth or pass.
(§2) The polyethertriamine used was JEFFAMINE T403 polyetheramine obtained from Huntsman Corporation of Houston, Texas.
(§3) In the example below, the alkyl dimethyl benzyl ammonium chloride contained a mixture of 50% by weight C14, 10% by weight C16, and 40% by weight C12 dimethyl benzyl ammonium chloride.
(§4) In the table below, PHMB stands for polyhexamethylene biguanide.

Pseudomonas aeruginosa [1] = experiment: glass slide carrier spray disinfection test, Pseudomonas aeruginosa; settings: 75 ppm antimicrobial agent, no polyethertriamine; 10 minutes contact time
Method: as §1, §2, §3, §4

Klebsiella pneumoniae = experiment: modified EN 1040 suspension test, Klebsiella pneumoniae; settings: 1.25 ppm antimicrobial agent, 60 seconds
Text: (§5) In particular, various antimicrobial agents and mixtures were combined and tested with and without the adjuvant of the present disclosure.
(§6) In this example, the same polyethertriamine described in Example No. 1 was used. In addition, the alkyl dimethyl benzyl ammonium chloride was the same mix as described in Example No. 1. The alkyl dimethyl ammonium chloride mix used in the samples below contained 40% by weight of octyl decyl dimethyl ammonium chloride, 16% by weight dioctyl dimethyl ammonium chloride, and 24% by weight of didecyl dimethyl ammonium chloride.
(§7) The modified EN 1040 suspension test was used to determine the efficacy of the test systems. The testing was performed for a contact time of 60 seconds in comparison to an identical composition not containing the adjuvant but containing the antimicrobial agent at the same concentration. Bacteria were stored at −80 °C using Microbank™ beads (Prolab diagnostics). Cultures were prepared in 250 mL baffled shake flasks with 25 mL of Tryptic Soy Broth (TSB) using one bead. After 18+/−8 hours incubation at 37 °C and 150 rpm, the inocula are prepared for the test.
(§8) The inocula were prepared by diluting the bacteria to 2.5×10^6 CFU/mL in phosphate buffered saline (PBS). Test compounds are prepared in DI water. Three levels of each test compound were prepared by serial two-fold dilution in the same hardwater. For each biological repetition, the test compounds were tested at 3 levels in quadruplicate with one quadruplicate control with no test compound.
The varying compositions were then mixed with the inocula in an 80:20 (test composition: inocula) ratio. After 60 seconds, the test composition/inocula mixture was neutralized by a 10-fold dilution in Letheen broth. […]
(§9) The average log reduction was calculated using the six dilutions.
Various different formulations were tested against Klebsiella pneumoniae and Pseudomonas aeruginosa. […] The average log reduction was recorded in addition to the difference in log reduction between the formulation containing the polyethertriamine and the formulation not containing the polyethertriamine.

Pseudomonas aeruginosa [2] = experiment: modified EN 1040 suspension test, Pseudomonas aeruginosa; settings: 1.25 ppm antimicrobial agent, 60 seconds
Text: as §5, §6, §7, §8
The varying compositions were then mixed with the inocula in an 80:20 (test composition: inocula) ratio. After 60 seconds, the test composition/inocula mixture was neutralized by a 10-fold dilution in Letheen broth. After neutralization of the test composition/inocula mixture, five more 10-fold dilutions were made. The six dilutions were incubated at 35 °C for 24 h+/−1 h. Neutralization was verified separately.
as §9
Various different formulations were tested against Klebsiella pneumoniae and Pseudomonas aeruginosa. The antimicrobial concentrations were tested at 5 ppm, 2.5 ppm, and 1.25 ppm. The antimicrobial blends were mixed at the indicated ratios by weight percent. The formulations were tested with and without the polyethertriamine (PEA). The polyethertriamine was added at weight ratios of 20:1, 40:1, 80:1, and 200:1 with respect to the antimicrobial agent(s). The average log reduction was recorded in addition to the difference in log reduction between the formulation containing the polyethertriamine and the formulation not containing the polyethertriamine.

[3] = tested on: Pseudomonas aeruginosa (ATCC 15442); experiment: EN1276 suspension test, dirty condition, 5 minutes; settings: for Log Reduction: no polyethertriamine, with 5.00 disodium cocoamphodiproprionate, 15.00 isopropyl alcohol, 5 minutes
Method: In particular, varying amounts of para-chloro-metal-xylenol (PCMX) were combined and tested with and without different adjuvants of the present disclosure.
In this example, the same polyethertriamine described in Example No. 1 was used. The disodium cocoamphodiproprionate used was Amphoterge® K-2 obtained from Arxada AG. The methylglycinediacetic acid used was Trilon® M obtained from BASF Corporation.
In tables 9 and 10, antimicrobial efficacy was evaluated according to the EU Standard EN1276 method against Pseudomonas aeruginosa (ATCC 15442) for a contact time of 5 minutes in dirty condition. Test compounds were diluted in hardwater with a total hardness of 375 ppm as CaCo3 pursuant to the Organization for Economic Co-operation and Development (OECD) and used within 2 hours of preparation. The test inoculum was adjusted to the concentration of 1.5-5×10^8 colony forming units (CFU) in Tryptone Sodium Chloride buffer (TSC, 1.0 g tryptone, 8.5 g NaCl, 1 L H2O). For the challenge test, 1 ml of the test inocula was mixed with 1 ml of Bovine Serum Albumin (final concentration 3 g/L) and held for 2 minutes before it was exposed to 8 mL of test compound. The test suspension was then mixed and held for the contact time of 5 minutes at 20±1 °C. At the end of the exposure time, 1 ml of the test mixture was transferred to a tube containing 9 ml neutralizing solution and held for 5 minutes before it was serially diluted and plated onto TSA plates. The plates were incubated at 37 °C for 48 hours before the numbers of CFU per ml in the test suspensions relative to the controls were calculated. Test and control procedures were performed in duplicate and carried out in parallel with the neutralization validation controls, as described in the standard.

For `CCCCCCCCCC[N+](C)(C)CCCCCCCCCC.[Cl-]` [didecyl dimethyl ammonium chloride], the “# Fails out of 10” value (Staphylococcus aureus) was 1 out of 10, the “# Fails out of 10” value (Pseudomonas aeruginosa [1]) was 9 out of 10 and the “Average Log Kill” value (Klebsiella pneumoniae; 0 ppm PEA) was 0.46 log. The “Delta Log Kill” value (Klebsiella pneumoniae; 250 ppm PEA vs 0) was 1.38 log, the “Average Log Kill” value (Klebsiella pneumoniae; 250 ppm PEA) was 1.83 log and the “Average Log Kill” value (Pseudomonas aeruginosa [2]; 0 ppm PEA) was 1.58 log. For the same molecule, the “Delta Log Kill” value (Pseudomonas aeruginosa [2]; 100 ppm PEA vs 0) was 0.92 log, the “Average Log Kill” value (Pseudomonas aeruginosa [2]; 100 ppm PEA) was 2.50 log and the “Delta Log Kill” value (Pseudomonas aeruginosa [2]; 250 ppm PEA vs 0) was 0.29 log. For the same molecule, the “Average Log Kill” value (Pseudomonas aeruginosa [2]; 250 ppm PEA) was 1.88 log.

With `Cc1cc(O)cc(C)c1Cl` [Para-chloro-meta-xylenol, 4-chloro-3,5-dimethylphenol] the “Log Reduction” value ([3]; 0.50% para-chloro-meta-xylenol, 1:5 dilution (1000 ppm)) was 0.83 log, the “Log Reduction” value ([3]; 1.00% para-chloro-meta-xylenol, 1:5 dilution (2000 ppm)) was 2.56 log and the “performance in presence of the adjuvants” value ([3]; Example No. 3) was “dramatically improved the performance”.

For `N=C(NCCCCCCNC(=N)NC(=N)Nc1ccc(Cl)cc1)NC(=N)Nc1ccc(Cl)cc1` [Chlorohexidine], the “# Fails out of 10” value (Staphylococcus aureus) was 10 out of 10 and the “# Fails out of 10” value (Pseudomonas aeruginosa [1]) was 10 out of 10.
